pIC50: −log10 of the molar value.
Key:
[1] = target: T1, human RORγt (Ligand Binding Domain) (Homo sapiens, UniProt P51449); test: Fluorescence Polarization (FP) Assay; conditions: Fluorescence Polarization (FP) Assay; values given as upper bounds of activity ranges; read-out: FP activity range
T1 construct: purchased Crelux (Planegg, Germany) batch no PC5032-1
T1 sequence (P51449 269-508 limits assumed): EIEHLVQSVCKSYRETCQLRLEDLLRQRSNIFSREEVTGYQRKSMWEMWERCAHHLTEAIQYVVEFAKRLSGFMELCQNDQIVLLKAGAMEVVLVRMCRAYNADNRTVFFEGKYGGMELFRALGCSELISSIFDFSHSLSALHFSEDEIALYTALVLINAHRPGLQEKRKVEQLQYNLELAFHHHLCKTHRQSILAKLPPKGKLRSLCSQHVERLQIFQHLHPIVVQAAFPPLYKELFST
How it was run: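 Binding to the ligand pocket followed by fluorescence polarization with a TAMRA-tagged RORγt ligand probe of 910 g/mole. Negative control wells received DMSO only.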

Th17 cells = test: Th17 Assay (IL-17 levels in supernatants by ELISA); type: cell-based; conditions: Homo sapiens; read-out: Th17 activity range @ 1 μM (% inhibition)
Procedure: The activity of the compounds was evaluated using a Fluorescence Polarization (FP) Assay and, in most cases, a Th17 Assay and/or RORγ Reporter assay (also referred to as Gal4 assay). The FP assay is an in vitro assay monitoring binding within the ligand binding pocket. The RORγ and the Th17 assays are both cell-based assays monitoring functional activity of the compound assayed.
Human peripheral blood mononuclear cells (PBMCs) were isolated from buffy coats of healthy human volunteers using the Ficoll paque PLUS kit (GE Healthcare, cat no 17-1440-02), as instructed by the manufacturer. Naive CD4+ T cells were isolated with Naive CD4+ T cell kit, human (Milteny Biotec, cat no 130-094-131). The following modifications were made to the manufacturer's protocol: 1) Incubation with Biotin-Antibody Cocktail and Anti-Biotin MicroBeads was prolonged to 30 minutes, and 2) Cells were washed with 40 mL of Miltenyi buffer. Differentiation of Th17 cells in anti-CD3 (BD Pharmingen, 5 μg/ml) coated 96-well plates (400,000 cells/well, 160 μl RPMI 1640+10% Fetal Bovine Serum) containing 5 μg/ml anti-CD28 (BD Pharmingen), 10 ng/ml IL-2 (R&D Systems), 2.5 ng/ml TGFβ-1 (R&D Systems), 20 ng/ml IL-1β (R&D Systems), 20 ng/ml IL-6 (R&D Systems), 30 ng/ml IL-23 (R&D Systems), 2.5 μg/ml anti-IL-4 (R&D Systems) and 1 μg/ml anti-IFNγ (R&D Systems) and with test compound during the entire differentiation (or vehicle, 0.1% DMSO for control). Test compounds were tested in triplicates, diluted 1000-fold in medium (final DMSO concentration is 0.1%). Incubated for seven days at 37° C., 5% CO2, 95% humidity, and 2-fluoro-4′-[[4-(4-pyridinylmethyl)-1-piperazinyl]methyl]-α,α-bis(trifluoromethyl)-[1,1′-biphenyl]-4-methanol (SR2211 Calbiochem, Cat. No. 557353) was used as positive control. As negative control, cells were differentiated into Th0 using 5 μg/ml anti-CD28 (BD Pharmingen), 10 ng/ml IL-2 (R&D Systems), 2 μg/ml anti-IL4 (R&D Systems) and 2 μg/ml anti-IFNγ (R&D Systems) are negative control. IL-17 levels in supernatants were measured with ELISA (R&D Systems).

[2] = target: T2, yeast Gal4-DNA binding domain fused to the ligand binding domain of human RORγ (Homo sapiens, UniProt P51449); test: RORγ Reporter Assay (Gal4); type: cell-based; conditions: values given as lower bounds of ranges; for Gal4 activity range @ 1 μM (% inhibition): RORγ Reporter Assay (Gal4) at 1 μM; for Gal4 activity range @ 0.1 μM (% inhibition): RORγ Reporter Assay (Gal4) at 0.1 μM
T2 construct: host or cells: HEK293t
T2 sequence (P51449 269-508 limits assumed): T1 sequence (P51449 269-508 limits assumed)
How it was run: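 Compound at final 1,000 or 100 nM (0.1% DMSO, triplicate) was added to the transfected HEK293t cells carrying a Gal4-UAS luciferase reporter for 24 h at 37 °C, 10% charcoal-stripped FBS. Activity reduction expressed as percent of vehicle-only luciferase signal.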

female C57BL/6 mice = test: Experimental Autoimmune Encephalomyelitis (EAE) Study; type: in vivo; conditions: 10 and 30 mg/kg, orally twice daily, 25 days
male DBA/1J mice = test: Collagen-Induced Arthritis (CIA) Study; type: in vivo; conditions: orally twice daily
Procedure: Collagen-induced arthritis is an animal model of rheumatoid arthritis used to evaluate the efficacy of test compounds. CIA was induced at Washington Biotechnology Inc. (Baltimore) in male DBA/1J mice (Jackson Laboratories) by subcutaneous injection at the base of the tail with 50 μl of a bovine collagen/complete Freund's adjuvant emulsion. After 21 days, the mice were further boosted by a further subcutaneous injection of 50 μl of a collagen/incomplete Freund's adjuvant emulsion. For treatment, compound or vehicle (2% DMSO, 10% HP-β-CD in MilliQ water) was given orally twice daily at various doses selected from 3, 10, 30 mg/kg, beginning at the day of CIA induction (Prophylactic setting), or after disease initiation (at day 27, therapeutic setting). Treatment lasted until day 41, and the animals were scored three times weekly. Each paw was scored and the sum of all four scores was recorded as the Arthritic Index (AI). The maximum possible AI was 16.0=no visible effects of arthritis; 1=edema and/or erythema of one digit; 2=edema and/or erythema of 2 joints; 3=edema and/or erythema of more than 2 joints; 4=severe arthritis of the entire paw and digits including limb deformation and ankylosis of the joint. The Arthritis Index for each treatment can be expressed as the mean score for each treatment group+/−S.E.M.

O=C(O)Cc1ccc(Cn2ccc3c(N4CCCC4c4ccc(C(F)(F)F)cc4)ncnc32)cc1 (stereo not shown) [Example 85, 2-[4-[[4-[2-[4-(trifluoromethyl)phenyl]pyrrolidin-1-yl]pyrrolo[2,3-d]pyrimidin-7-yl]methyl]phenyl]acetic acid]
pIC50 [1]: > 6.30
inhibition at 1 µM (Th17 cells): > 80%
Gal4 activity range @ 1 μM (% inhibition) [2]: >80 % inhibition

COc1ccc(Cn2ccc3c(N4CCCC4c4ccc(C(F)(F)F)cc4)ccnc32)cc1OC (stereo not shown) [Example 67, 1-[(3,4-dimethoxyphenyl)methyl]-4-[2-[4-(trifluoromethyl)phenyl]pyrrolidin-1-yl]pyrrolo[2,3-b]pyridine]
pIC50 [1]: > 5.70
inhibition at 1 µM (Th17 cells): > 80%
Gal4 activity range @ 1 μM (% inhibition) [2]: >80 % inhibition

Cc1ccc(CNc2ncnc(N3CCCC3c3ccc(C(F)(F)F)cc3)c2F)cn1 (stereo not shown) [Example 89, 5-fluoro-N-[(6-methyl-3-pyridyl)methyl]-6-[2-[4-(trifluoromethyl)phenyl]pyrrolidin-1-yl]pyrimidin-4-amine]
pIC50 [1]: > 6.30
inhibition at 1 µM (Th17 cells): > 20%
Gal4 activity range @ 0.1 μM (% inhibition) [2]: >20 % inhibition
Gal4 activity range @ 1 μM (% inhibition) [2]: >80 % inhibition

CC(C)(C)C[C@@H](Nc1ncnc(N2CCC[C@@H]2c2ccc(C(F)(F)F)cc2)c1F)C(N)=O (single isomer, unassigned) [Example 62, (2R)-2-[[5-fluoro-6-[(2R)-2-[4-(trifluoromethyl)phenyl]pyrrolidin-1-yl]pyrimidin-4-yl]amino]-4,4-dimethyl-pentanamide or (2R)-2-[[5-fluoro-6-[(2S)-2-[4-(trifluoromethyl)phenyl]pyrrolidin-1-yl]pyrimidin-4-yl]amino]-4,4-dimethyl-pentanamide]
pIC50 [1]: > 6.30
inhibition at 1 µM (Th17 cells): > 80%
Gal4 activity range @ 1 μM (% inhibition) [2]: >80 % inhibition

NC(=O)Cc1ccc(CNc2ncnc(N3CCOC[C@@H]3c3ccc(C(F)(F)F)cc3)c2F)cc1 [Example 204, 2-[4-[[[5-fluoro-6-[(3S)-3-[4-(trifluoromethyl)phenyl]morpholin-4-yl]pyrimidin-4-yl]amino]methyl]phenyl]acetamide]
pIC50 [1]: > 6.30
Gal4 activity range @ 0.1 μM (% inhibition) [2]: >50 % inhibition
Gal4 activity range @ 1 μM (% inhibition) [2]: >80 % inhibition
EAE clinical score (female C57BL/6 mice): lower clinical score
onset of EAE (female C57BL/6 mice): delay onset
CIA disease development, therapeutic setting (male DBA/1J mice; 30 mg/kg, from day 27): arrest disease development
CIA disease severity, prophylactic setting (male DBA/1J mice; 10 and 30 mg/kg, from day of CIA induction): significantly reduce disease severity

CC(C)(C)C[C@H](CO)Nc1ncnc(N2CCCC2c2ccc(C(F)(F)F)cc2)c1F (stereo partly drawn) [Example 30, (2R)-2-[[5-fluoro-6-[2-[4-(trifluoromethyl)phenyl]pyrrolidin-1-yl]pyrimidin-4-yl]amino]-4,4-dimethyl-pentan-1-ol]
pIC50 [1]: > 6.30
inhibition at 1 µM (Th17 cells): > 50%
Gal4 activity range @ 1 μM (% inhibition) [2]: >80 % inhibition

Fc1c(NCc2ccc(Cn3ccnc3)cc2)ncnc1N1CCCC1c1ccc(C(F)(F)F)cc1 (stereo not shown) [Example 94, 5-fluoro-N-[[4-(imidazol-1-ylmethyl)phenyl]methyl]-6-[2-[4-(trifluoromethyl)phenyl]pyrrolidin-1-yl]pyrimidin-4-amine]
pIC50 [1]: > 6.30
inhibition at 1 µM (Th17 cells): > 80%
Gal4 activity range @ 0.1 μM (% inhibition) [2]: >80 % inhibition
Gal4 activity range @ 1 μM (% inhibition) [2]: >80 % inhibition

O=C(O)Cc1ccc(COc2ncnc(N3CCCC3c3ccc(C(F)(F)F)cc3)c2F)cc1 (stereo not shown) [Example 79, 2-[4-[[5-fluoro-6-[2-[4-(trifluoromethyl)phenyl]pyrrolidin-1-yl]pyrimidin-4-yl]oxymethyl]phenyl]acetic acid]
pIC50 [1]: > 6.30
inhibition at 1 µM (Th17 cells): > 50%
Gal4 activity range @ 1 μM (% inhibition) [2]: >50 % inhibition

CC(C)(C)C[C@@H](Nc1ncnc(N2CCCC2c2ccc(C(F)(F)F)cc2Cl)c1F)C(N)=O (stereo partly drawn) [Example 35, (2R)-2-[[6-[2-[2-chloro-4-(trifluoromethyl)phenyl]pyrrolidin-1-yl]-5-fluoro-pyrimidin-4-yl]amino]-4,4-dimethyl-pentanamide]
pIC50 [1]: > 6.30
inhibition at 1 µM (Th17 cells): > 50%

CC(C)(C)C[C@@H](Nc1cc(N2CCCC2c2ccc(C(F)(F)F)cc2)ncn1)C(N)=O (stereo partly drawn) [Example 6, (2R)-4,4-dimethyl-2-[[6-[2-[4-(trifluoromethyl)phenyl]pyrrolidin-1-yl]pyrimidin-4-yl]amino]pentanamide]
pIC50 [1]: > 5.00
inhibition at 1 µM (Th17 cells): > 20%

O=C(O)Cc1ccc(CNc2ncnc(N3CCC[C@@H]3c3ccc(C(F)(F)F)cc3)c2F)cc1 [Example 81, 2-[4-[[[5-fluoro-6-[(2R)-2-[4-(trifluoromethyl)phenyl]pyrrolidin-1-yl]pyrimidin-4-yl]amino]methyl]phenyl]acetic acid]
pIC50 [1]: > 6.30
inhibition at 1 µM (Th17 cells): > 80%
Gal4 activity range @ 1 μM (% inhibition) [2]: >80 % inhibition

O=C(O)Cc1ccc(CNc2ncnc(N3CCOCC3c3ccc(OC(F)(F)F)cc3)c2F)cc1 (stereo not shown) [Example 91, 2-[4-[[[5-fluoro-6-[3-[4-(trifluoromethoxy)phenyl]morpholin-4-yl]pyrimidin-4-yl]amino]methyl]phenyl]acetic acid]
pIC50 [1]: > 6.30
inhibition at 1 µM (Th17 cells): > 80%
Gal4 activity range @ 0.1 μM (% inhibition) [2]: >20 % inhibition
Gal4 activity range @ 1 μM (% inhibition) [2]: >80 % inhibition

CC(C)(C)C[C@@H](Nc1nc(C(F)(F)F)nc(N2CCCC2c2ccc(C(F)(F)F)cc2)c1F)C(N)=O (stereo partly drawn) [Example 13, (2R)-2-[[5-fluoro-2-(trifluoromethyl)-6-[2-[4-(trifluoromethyl)phenyl]pyrrolidin-1-yl]pyrimidin-4-yl]amino]-4,4-dimethyl-pentanamide]
pIC50 [1]: > 5.00
inhibition at 1 µM (Th17 cells): > 20%

Source: US10689383B2, “Optionally fused heterocyclyl-substituted derivatives of pyrimidine useful for the treatment of inflammatory, metabolic, oncologic and autoimmune diseases” (NUEVOLUTION A/S, priority 2014, dated 2020)
